Among the data in US10681909B2, “Herbicidal triazoles” (FMC Corporation, priority 2014, dated 2020) are pest or weed control, Corn plant response rating (crop injury, 0 = no effect, 100 = complete kill) and plant injury values, retold here.

One assay deals with foxtail, giant. In words: Test A preemergence. The class given is in vivo, Setaria faberii. The settings on record: Setaria faberi, pre-emergence, 240 h, 0 to 100 scale (0 no effect, 100 complete control), read-out: Plant response rating, Foxtail, Giant; for pest or weed control at 125 g/ha: 125 g ai/ha; for pest or weed control at 500 g/ha: 500 g ai/ha, approx. 10 d. The gist of the method:
(§1)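 Test chemicals, formulated in a surfactant-containing non-phytotoxic solvent mixture, are applied either as a directed soil spray to newly planted seeds or as a postemergence application to plants at the one- to two-leaf stage (2–10 cm). All plants grow in a loam soil and sand blend.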

The subject of assay [1] is barnyardgrass. In words: Test A postemergence. Type of assay: in vivo, Echinochloa crus-galli. The note with it: Echinochloa crus-galli, post-emergence, 240 h, 0 to 100 scale (0 no effect, 100 complete control), approx. 10 d, read-out: Plant response rating, Barnyardgrass; for pest or weed control at 125 g/ha: 125 g ai/ha; for pest or weed control at 500 g/ha: 500 g ai/ha. In a few lines: as §1

The test system of another assay is pigweed. As to the kind of experiment: Test A postemergence. The note with it: Amaranthus retroflexus, post-emergence, 240 h, 0 to 100 scale (0 no effect, 100 complete control), approx. 10 d, read-out: Plant response rating, Pigweed; for pest or weed control at 125 g/ha: 125 g ai/ha; for pest or weed control at 500 g/ha: 500 g ai/ha. Type of assay: in vivo, Amaranthus retroflexus. In a few lines:
as §1

The next assay has as its system corn. In words: Test A postemergence. The settings on record: Zea mays, post-emergence, 240 h, 0 to 100 scale (0 no effect, 100 complete control), approx. 10 d; for Corn plant response rating (crop injury, 0 = no effect, 100 = complete kill) at 125 g/ha: 125 g ai/ha; for Corn plant response rating (crop injury, 0 = no effect, 100 = complete kill) at 500 g/ha: 500 g ai/ha. Type of assay: in vivo, Zea mays. In a few lines: as §1

For a further assay, the system named is rice. As to the kind of experiment: Test B flooded paddy test. The class given is in vivo, Oryza sativa. The note with it: Oryza sativa, 360 h, 125 g ai/ha, applied to paddy water at 2-leaf stage, visual rating after 13 to 15 d, scale 0 (no effect) to 100 (complete control), read-out: Plant response rating, Rice, Flood. The gist of the method: (§2)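 Pots were flooded to 3 cm above the soil at treatment, and compounds were applied directly into the paddy water. That depth was held throughout. After 13 to 15 d in a greenhouse, plants were rated visually against untreated controls.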

Assay [2] relates to barnyardgrass. In words: Test B flooded paddy test. Type of assay: in vivo, Echinochloa crus-galli. The settings on record: Echinochloa crus-galli, 360 h, 125 g ai/ha, applied to paddy water at 2-leaf stage, visual rating after 13 to 15 d, scale 0 (no effect) to 100 (complete control), read-out: Plant response rating, Barnyardgrass, Flood. In a few lines:
as §2

For the molecule `CCn1nc(-c2ccc(F)cc2)nc1C(O)c1ccnc(C(F)(F)F)c1` (stereo not drawn) [Compound 15, α-[1-Ethyl-3-(4-fluorophenyl)-1H-1,2,4-triazol-5-yl]-2-(trifluoromethyl)-4-pyridinemethanol], the pest or weed control at 125 g/ha with foxtail, giant turned out to be 0%; in the assay on barnyardgrass [1], 0%; in the assay on pigweed it was 10%; in the assay on barnyardgrass [2], 0%. Further, the pest or weed control at 500 g/ha stood at 20% with foxtail, giant; 10% with barnyardgrass [1]; 70% with pigweed. Also, the Corn plant response rating (crop injury, 0 = no effect, 100 = complete kill) at 125 g/ha in the assay with corn turned out to be 0%. The molecule also had a Corn plant response rating (crop injury, 0 = no effect, 100 = complete kill) at 500 g/ha in the assay on corn of 10%. For the same molecule, the plant injury at 125 g/ha with rice amounted to 0%.
For the molecule `CCCn1nc(-c2ccc(F)cc2)nc1Cc1ccnc(C(F)(F)F)c1` [Compound 17, 4-[[3-(4-fluorophenyl)-1-propyl-1H-1,2,4-triazol-5-yl]methyl]-2-(trifluoromethyl)pyridine], the pest or weed control at 125 g/ha amounted to 100% in the assay on foxtail, giant; 70% with barnyardgrass [1]; 100% in the assay with pigweed; 10% with barnyardgrass [2]. The pest or weed control at 500 g/ha is 100% in the assay with foxtail, giant; 90% with barnyardgrass [1]; 100% in the assay on pigweed. The same molecule gave a Corn plant response rating (crop injury, 0 = no effect, 100 = complete kill) at 125 g/ha in the assay on corn of 50%. Moreover, in the assay with corn, the Corn plant response rating (crop injury, 0 = no effect, 100 = complete kill) at 500 g/ha is 70%. Besides, the plant injury at 125 g/ha with rice stood at 15%.
Turning to `CCn1nc(-c2ccc(F)cc2)nc1C(=O)c1ccnc(C(F)(F)F)c1` [Compound 19, [1-ethyl-3-(4-fluorophenyl)-1H-1,2,4-triazol-5-yl][2-(trifluoromethyl)-4-pyridinyl]methanone], the pest or weed control at 125 g/ha in the assay with foxtail, giant turned out to be 0%; with barnyardgrass [1], 0%; with pigweed, 0%; with barnyardgrass [2], 0%. Further, the pest or weed control at 500 g/ha in the assay on foxtail, giant was 50%; in the assay with barnyardgrass [1], 0%; in the assay on pigweed, 30%. The molecule further showed a Corn plant response rating (crop injury, 0 = no effect, 100 = complete kill) at 125 g/ha in the assay with corn of 0%. This molecule also had a Corn plant response rating (crop injury, 0 = no effect, 100 = complete kill) at 500 g/ha in the assay on corn of 20%. In addition, the plant injury at 125 g/ha in the assay with rice stood at 0%.
`CS(=O)(=O)c1nc(-c2ccc(F)cc2)nn1Cc1ccnc(C(F)(F)F)c1` [Compound 29, 4-[[3-(4-fluorophenyl)-5-(methylsulfonyl)-1H-1,2,4-triazole-1-yl]methyl]-2-(trifluoromethyl)pyridine]: the pest or weed control at 125 g/ha turned out to be 0% in the assay on foxtail, giant; 0% with barnyardgrass [1]; 0% with pigweed; 0% with barnyardgrass [2]. In addition, the pest or weed control at 500 g/ha in the assay with foxtail, giant amounted to 0%; in the assay with barnyardgrass [1] it was 0%; in the assay on pigweed, 0%. In the assay on corn, this molecule showed a Corn plant response rating (crop injury, 0 = no effect, 100 = complete kill) at 125 g/ha of 0%. In addition, in the assay on corn, the Corn plant response rating (crop injury, 0 = no effect, 100 = complete kill) at 500 g/ha is 0%. The plant injury at 125 g/ha in the assay on rice is 0%.
